Data set [1] relates to Staphylococcus aureus. The experiment in a line: Antimicrobial activity against Staphylococcus aureus after 18 to 24 hrs. The format is functional.
In data set [2] the test system is Artemia salina. The experiment in a line: Toxicity in Artemia salina after 24 hrs. The format is organism-based. The conditions noted are these: in vivo.
Data set [3] has as its system Artemia salina. In words: Toxicity in Artemia salina assessed as mortality at 100 ppm after 24 hrs. The format is organism-based. To be noted: in vivo.
Data set [4] relates to Artemia salina. In words: Toxicity in Artemia salina assessed as mortality at 1000 ppm after 24 hrs. The format is organism-based. To be noted: in vivo.
In data set [5] the test system is Artemia salina. In words: Toxicity in Artemia salina assessed as mortality at 250 ppm after 24 hrs. Type of data set: organism-based. To be noted: in vivo.
Data set [6] relates to Artemia salina. The experiment in a line: Toxicity in Artemia salina assessed as mortality at 500 ppm after 24 hrs. Type of data set: organism-based. To be noted: in vivo.
In data set [7] the test system is Bacillus subtilis. The experiment in a line: Antimicrobial activity against Bacillus subtilis at 20 uL after 18 to 24 hrs by disk diffusion method. Type of data set: functional. (In general: Agar diffusion results depend on both activity and mobility in agar.)
For data set [8], the system named is Candida albicans. In words: Antimicrobial activity against Candida albicans after 18 to 24 hrs. The format is functional.
The subject of data set [9] is Escherichia coli. In words: Antimicrobial activity against Escherichia coli at 20 uL after 18 to 24 hrs by disk diffusion method. Type of data set: functional.
The subject of data set [10] is Candida albicans. The experiment in a line: Antimicrobial activity against Candida albicans after 18 to 24 hrs at 20 uL by disk diffusion assay. The format is functional.
Data set [11] deals with Escherichia coli. The experiment in a line: Antimicrobial activity against Escherichia coli after 18 to 24 hrs. The format is functional.
Data set [12] has as its system Bacillus subtilis. In words: Antimicrobial activity against Bacillus subtilis after 18 to 24 hrs. The format is functional.
Data set [13] concerns Staphylococcus aureus. In words: Antimicrobial activity against Staphylococcus aureus at 20 uL after 18 to 24 hrs by disk diffusion method. Type of data set: functional.

In brackets after ≈: the same amount, converted by molar mass.

For the compound `CCCCOC(=O)[C@H](COC(=O)CCc1ccccc1)NC(=O)c1cccnc1O`, the MIC (commonly the smallest concentration in the dilution series that meets the test's criterion for growth inhibition) in the data set with Staphylococcus aureus [1] is 1000 µg/mL (≈ 2410 µM); in the data set with Candida albicans [8], 1000 µg/mL (≈ 2410 µM); in the data set on Escherichia coli [11], 1000 µg/mL (≈ 2410 µM); with Bacillus subtilis [12], 500 µg/mL (≈ 1210 µM). Besides, the median lethal concentration (LC50) (commonly the concentration lethal to half of the exposed cells or organisms) in the data set on Artemia salina [2] is reported as 266.83 ppm; in the data set on Artemia salina [3], 26.67 ppm; with Artemia salina [4], 100 ppm; in the data set with Artemia salina [5], 55.58 ppm; with Artemia salina [6], 76.67 ppm. Further, the “diameter of the inhibition zone (DIZ)” value is recorded as 7 mm with Bacillus subtilis [7], 7.83 mm in the data set with Escherichia coli [9], 7.5 mm in the data set with Candida albicans [10] and 7.5 mm in the data set on Staphylococcus aureus [13].

In the case of `CCCCCCCC(=O)OC[C@H](NC(=O)c1cccnc1O)C(=O)OCCCC`, the MIC with Staphylococcus aureus [1] was 100 µg/mL (≈ 245 µM); in the data set on Candida albicans [8] it was 250 µg/mL (≈ 612 µM); with Escherichia coli [11], 75 µg/mL (≈ 184 µM); with Bacillus subtilis [12], 50 µg/mL (≈ 122 µM). For the same compound, the LC50 in the data set with Artemia salina [2] stood at 3620.41 ppm; in the data set with Artemia salina [3], 0 ppm; in the data set with Artemia salina [4], 11.02 ppm; in the data set on Artemia salina [5] it was 0 ppm; in the data set on Artemia salina [6] it was 2.78 ppm. Besides, the “diameter of the inhibition zone (DIZ)” value turned out to be 7 mm with Bacillus subtilis [7], 7 mm in the data set with Escherichia coli [9], 7.83 mm in the data set with Candida albicans [10] and 7 mm with Staphylococcus aureus [13].

Turning to `CCCCOC(=O)[C@H](COC(C)=O)NC(=O)c1cccnc1O`, the MIC was 250 µg/mL (≈ 771 µM) with Staphylococcus aureus [1], 500 µg/mL (≈ 1540 µM) against Candida albicans [8], 250 µg/mL (≈ 771 µM) against Escherichia coli [11] and 250 µg/mL (≈ 771 µM) in the data set on Bacillus subtilis [12]. In addition, the 50% lethal concentration (LC50) in the data set with Artemia salina [2] was found to be 811.01 ppm; with Artemia salina [3] it was 4.94 ppm; in the data set on Artemia salina [4], 58.66 ppm; in the data set on Artemia salina [5], 9.7 ppm; in the data set on Artemia salina [6], 39.62 ppm. For the same compound, the “diameter of the inhibition zone (DIZ)” value in the data set on Bacillus subtilis [7] was determined as 7 mm; with Escherichia coli [9], 7 mm; in the data set on Candida albicans [10], 7.5 mm; in the data set on Staphylococcus aureus [13] it was 7.5 mm.

In the case of `CCCC[C@H]1C(=O)O[C@H](C)[C@H](NC(=O)c2cccc(NC=O)c2O)C(=O)O[C@@H](C)[C@@H]1OC(=O)CC(C)C` [ANTIMYCIN A3], the minimum inhibitory concentration (MIC) in the data set on Staphylococcus aureus [1] is 250 µg/mL (≈ 480 µM); with Candida albicans [8], 50 µg/mL (≈ 96 µM); with Escherichia coli [11] it was 50 µg/mL (≈ 96 µM); in the data set with Bacillus subtilis [12], 250 µg/mL (≈ 480 µM). Besides, the “diameter of the inhibition zone (DIZ)” value amounted to 8.5 mm with Bacillus subtilis [7], 7 mm in the data set with Escherichia coli [9], 10 mm in the data set on Candida albicans [10] and 8 mm in the data set on Staphylococcus aureus [13].
